Reference: US7501430B2 (ArQule, Inc., priority 2006, dated 2009)

target: T1, mutant B-RAF (Homo sapiens, UniProt P15056, V600E); assay: RAF biochemical assay (MEK-1 phosphorylation, anti-phospho MEK1/2 detection); conditions: not given
T1 construct: purchased Upstate (Charlottesville, Va.)
Procedure: Materials: The RAF kinases and the anti-phospho MEK1/2 antibody were from Upstate (Charlottesville, Va.). The RAF substrate used was full length N-terminal GST-MEK-1, which was expressed in E. coli and purified in-house by HPLC. All proteins were aliquoted and stored at −80° C.
Compounds were serially diluted in assay buffer containing 1% DMSO and 20 μL of test compound at a concentration 3-fold more than the final concentration, and were added to a polypropylene V-well reaction plate. Vehicle control wells received buffer only with DMSO at equivalent concentrations to the test wells. […] These reaction plates were incubated at room temperature for 30 minutes. Capture of MEK-1 was initiated by transferring 50 μl of the reaction mixture to a Nunc Maxisorp™ microplate that is designed for non-specific protein capture. After 30 minute capture of MEK-1 at room temperature, this plate was washed with TBST (6×200 μL/well) to fully terminate the reaction. The plate was then blocked for 1 hour by the addition of 100 μl/well of Superblock™ in phosphate buffered saline (PBS) blocking reagent. Plate was again washed with TBST (6 times with 200 μL/well), followed by the addition of 70 μL/well of Upstate anti-phospho MEK 1/2 diluted 1:1000 in Pierce Superblock (PBS). After a 60 minute incubation, this plate was washed with TBST (6 times with 200 μL/well), and 70 μL of the secondary antibody (Pierce Alkaline Phosphatase tagged goat anti-rabbit) prepared at 1:4000 in Superblock, were added. After a 45 minute incubation at room temperature, the wells of the microplate were washed with TBST (6 times with 200 μL/well), and thereafter 100 μl/well of Attophos™ fluorescent alkaline phosphatase substrate was added according to the manufacturer's instructions (JBL Scientific).

T1 sequence (P15056 whole entry V600E): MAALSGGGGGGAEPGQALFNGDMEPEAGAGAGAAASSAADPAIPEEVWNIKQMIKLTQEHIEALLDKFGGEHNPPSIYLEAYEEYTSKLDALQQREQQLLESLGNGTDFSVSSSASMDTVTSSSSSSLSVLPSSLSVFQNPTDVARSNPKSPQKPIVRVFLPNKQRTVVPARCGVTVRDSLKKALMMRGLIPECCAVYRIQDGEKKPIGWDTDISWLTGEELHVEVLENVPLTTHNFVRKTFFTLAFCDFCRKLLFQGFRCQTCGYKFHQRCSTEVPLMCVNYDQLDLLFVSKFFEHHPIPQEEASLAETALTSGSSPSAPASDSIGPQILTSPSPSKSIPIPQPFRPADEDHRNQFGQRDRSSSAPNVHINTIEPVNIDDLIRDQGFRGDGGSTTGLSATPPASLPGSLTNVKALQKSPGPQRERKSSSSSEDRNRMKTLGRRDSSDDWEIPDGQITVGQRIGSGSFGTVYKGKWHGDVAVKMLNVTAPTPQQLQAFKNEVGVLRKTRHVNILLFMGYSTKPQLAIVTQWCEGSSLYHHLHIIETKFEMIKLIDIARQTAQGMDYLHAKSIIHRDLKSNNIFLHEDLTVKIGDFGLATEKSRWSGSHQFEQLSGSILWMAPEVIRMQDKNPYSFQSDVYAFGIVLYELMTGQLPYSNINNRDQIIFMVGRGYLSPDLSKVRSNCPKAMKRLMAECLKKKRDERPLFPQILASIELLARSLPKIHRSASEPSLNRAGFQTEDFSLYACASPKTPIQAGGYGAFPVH

Row | SMILES | IC50 [nM]
1 | CCC(=O)N1CCC[C@@H](Nc2nccc(-c3c(-c4ccc(F)cc4)nc4occn34)n2)C1 [Example 34, 4-[6-(4-fluorophenyl)imi-dazo[2,1-b][1,3]oxazol-5-yl]-N-[(3R)-1-propionylpiperidin-3-yl]pyrimidin-2-amine] | 1580

same assay, conditions: @ 10 uM

Row | SMILES | Mutant B-RAF % inhibition
2 | COc1ccc(S(=O)(=O)N2CCC[C@@H](Nc3nccc(-c4c(-c5ccc(F)cc5)nc5occn45)n3)C2)cc1 [Example 44, 4-[6-(4-fluorophenyl)imi-dazo[2,1-b][1,3]oxazol-5-yl]-N-{(3R)-1-[(4-methoxy-phenyl)sulfonyl]piperidin-3-yl}pyrimidin-2-amine] | 45 @ 10 uM %

same assay, conditions: @ 10 uM; read-out: Mutant B-RAF % inhibition

Row | inhibition at 10 µM [%] | SMILES
3 | 49 | O=C(Nc1ccc(F)cc1)N1CCC(Nc2nccc(-c3c(-c4ccc(F)cc4)nc4sccn34)n2)CC1 [Example 295, N-(4-fluorophenyl)-4-({4-[6-(4-fluorophenyl)imidazo[2,1-b][1,3]thiazol-5-yl]pyrimidin-2-yl}amino)piperidine-1-carboxamide]
4 | 35 | O=C(NCc1ccco1)N1CCC[C@@H](Nc2nccc(-c3c(-c4ccc(F)cc4)nc4occn34)n2)C1 [Example 25, (3R)-3-({4-[6-(4-fluorophenyl)imidazo[2,1-b][1,3]oxazol-5-yl]pyrimidin-2-yl}amino)-N-(2-furylmethyl)piperidine-1-carboxamide]
5 | 58 | CC(=O)Nc1nc(C)c(S(=O)(=O)N2CCC[C@@H](Nc3nccc(-c4c(-c5ccc(F)cc5)nc5occn45)n3)C2)s1 [Example 64, N-(5-{[(3R)-3-({4-[6-(4-fluorophenyl)imidazo[2,1-b][1,3]oxazol-5-yl]pyrimidin-2-yl}amino)piperidin-1-yl]sulfonyl}-4-methyl-1,3-thiazol-2-yl)acetamide]
6 | 14 | Fc1ccc(CN2CCC(Nc3nccc(-c4c(-c5ccc(F)cc5)nc5sccn45)n3)CC2)cc1 [Example 293, N-[1-(4-fluorobenzyl)piperidin-4-yl]-4-[6-(4-fluorophenyl)imidazo[2,1-b][1,3]thiazol-5-yl]pyrimidin-2-amine]

Second part, the compound before the results:

Row | SMILES | inhibition at 10 µM [%]
7 | COc1ccc(Cl)cc1NC(=O)N1CCC[C@@H](Nc2nccc(-c3c(-c4ccc(F)cc4)nc4occn34)n2)C1 [Example 70, (3R)-N-(5-chloro-2-methoxyphenyl)-3-({4-[6-(4-fluorophenyl)imidazo[2,1-b][1,3]oxazol-5-yl]pyrimidin-2-yl}amino)piperidine-1-carboxamide] | 49
8 | Cc1cn2c(-c3ccnc(NC4CCNCC4)n3)c(-c3ccc(F)cc3)nc2s1 [Example 224, 4-[6-(4-fluorophenyl)-2-methylimidazo[2,1-b][1,3]thiazol-5-yl]-N-piperidin-4-ylpyrimidin-2-amine] | 70
9 | COc1ccc(C(=O)N2CCC[C@@H](Nc3nccc(-c4c(-c5ccc(F)c(F)c5)nc5sccn45)n3)C2)cc1 [Example 89, 4-[6-(3,4-difluorophenyl)imidazo[2,1-b][1,3]thiazol-5-yl]-N-[(3R)-1-(4-methoxybenzoyl)piper-idin-3-yl]pyrimidin-2-amine] | 40
10 | COc1ccc(-c2nc3sccn3c2-c2ccnc(N[C@@H]3CCCNC3)n2)cc1 [Example 106, 4-[6-(4-methoxyphenyl)imidazo[2,1-b][1,3]thiazol-5-yl]-N-[(3R)-piperidin-3-yl]pyrimidin-2-amine] | 27
11 | O=S(=O)(c1c(F)cccc1F)N1CCC(Nc2nccc(-c3c(-c4ccc(F)cc4)nc4occn34)n2)CC1 [Example 236, N-{1-[(2,6-difluorophenyl)sulfonyl]piperidin-4-yl}-4-[6-(4-fluorophenyl)imidazo[2,1-b][1,3]oxazol-5-yl]pyrimidin-2-amine] | 30

same assay, conditions: read-out: Mutant B-RAF IC50

Row | IC50 [nM] | SMILES
12 | 22 | N#Cc1ccc(S(=O)(=O)N2CCC(Nc3nccc(-c4c(-c5cccc(O)c5)nc5occn45)n3)CC2)cc1 [Example 317, 4-{[4-({4-[6-(3-hydroxyphenyl)imidazo[2,1-b][1,3]oxazol-5-yl]pyrimidin-2-yl}amino)piperidin-1-yl]sulfonyl}benzonitrile]
13 | 0.03 | O=S(=O)(C1CC1)N1CCC(Nc2nccc(-c3c(-c4ccc(F)c(O)c4)nc4sccn34)n2)CC1 [Example 354, 5-[5-(2-{[1-(cyclopropylsulfonyl)piperidin-4-yl]amino}pyrimidin-4-yl)imidazo[2,1-b][1,3]thiazol-6-yl]-2-fluorophenol]
14 | 4000 | COc1cccc(-c2nc3sccn3c2-c2ccnc(N[C@@H]3CCCN(C(=O)Nc4ccc(SC)cc4)C3)n2)c1 [Example 330, (3R)-3-({4-[6-(3-methoxyphenyl)imidazo[2,1-b][1,3]thiazol-5-yl]pyrimidin-2-yl}amino)-N-[4-(methylthio)phenyl]piperidine-1-carboxamide]
15 | 46 | O=S(=O)(C1CC1)N1CCC(Nc2nccc(-c3c(-c4cccc(O)c4)nc4occn34)n2)CC1 [Example 339, 3-[5-(2-{[1-(cyclopropylsulfonyl)piperidin-4-yl]amino}pyrimidin-4-yl)imidazo[2,1-b][1,3]oxazol-6-yl]phenol]
16 | 3 | O=S(=O)(c1ccsc1)N1CCC[C@@H](Nc2nccc(-c3c(-c4cccc(O)c4)nc4sccn34)n2)C1 [Example 367, 3-[5-(2-{[(3R)-1-(3-thienylsulfonyl)piperidin-3-yl]amino}pyrimidin-4-yl)imidazo[2,1-b][1,3]thiazol-6-yl]phenol]
17 | > 3000 | COC(=O)N1CCC(Nc2nccc(-c3c(-c4cccc(O)c4)nc4sccn34)n2)CC1 [Example 394, methyl 4-({4-[6-(3-hydroxyphenyl)imidazo[2,1-b][1,3]thiazol-5-yl]pyrimidin-2-yl}amino)piperidine-1-carboxylate]

Second part, the compound before the results:

Row | SMILES | IC50 [nM]
18 | O=C([C@@H]1CCCN1)N1CCC(Nc2nccc(-c3c(-c4ccc(F)cc4)nc4occn34)n2)CC1 [Example 192, 4-[6-(4-fluorophenyl)imidazo[2,1-b][1,3]oxazol-5-yl]-N-(1-L-prolylpiperidin-4-yl)pyrimidin-2-amine] | 1450
19 | O=S(=O)(c1ccc(Cl)cc1)N1CCC[C@@H](Nc2nccc(-c3c(-c4ccc(F)cc4)nc4sccn34)n2)C1 [Example 98, N-{(3R)-1-[(4-chlorophenyl)sulfonyl]piperidin-3-yl}-4-[6(4-fluorophenyl)imidazo[2,1-b][1,3]thiazol-5-yl]pyrimidin-2-amine] | 36
20 | COc1cccc(-c2nc3sccn3c2-c2ccnc(N[C@@H]3CCCN(C[C@@H](O)CO)C3)n2)c1 [Example 147, (2R)-3-[(3R)-3-({4-[6-(3-methoxyphenyl)imidazo[2,1-b][1,3]thiazol-5-yl]pyrimidin-2-yl}amino)piperidin-1-yl]propane-1,2-diol] | > 3000
21 | CC(=O)Nc1ccc(-c2nc3sccn3c2-c2ccnc(NC3CCN(S(=O)(=O)c4ccc(Cl)cc4)CC3)n2)cc1 [Example 259, N-(4-{5-[2-({1-[(4-chlorophenyl)sulfonyl]piperidin-4-yl}amino)pyrimidin-4-yl]imidazo[2,1-b][1,3]thiazol-6-yl}phenyl)acetamide] | > 3000
22 | Cc1cn2c(-c3ccnc(N[C@@H]4CCCN(S(=O)(=O)c5ccc(F)cc5)C4)n3)c(-c3ccc(F)cc3)nc2s1 [Example 91, 4-[6-(4-fluorophenyl)-2-methylimidazo[2,1-b][1,3]thiazol-5-yl]-N-{(3R)-1-[(4-fluorophenyl)sulfonyl]piper-idin-3-yl}pyrimidin-2-amine] | 352
23 | COc1cc(-c2nc3sccn3c2-c2ccnc(NC3CCN(S(=O)(=O)C4CC4)CC3)n2)ccc1F [Example 349, N-[1-(cyclopropylsulfonyl)piperidin-4-yl]-4-[6-(4-fluoro-3-methoxyphenyl)imidazo[2,1-b][1,3]thiazol-5-yl]pyrimidin-2-amine] | 2600
24 | COc1ccc(-c2nc3sccn3c2-c2ccnc(NC3CCCN(S(=O)(=O)c4ccc(Cl)cc4)C3)n2)cc1OC (stereo in doubt) [Example 135, N-{(3R)-1-[(4-chlorophenyl)sulfonyl]piperidin-3-yl}-4-[6-(3,4-dimethoxyphenyl)imidazo[2,1-b][1,3]thiazol-5-yl]pyrimidin-2-amine] | 696
25 | COc1cccc(-c2nc3occn3c2-c2ccnc(NC3CCNCC3)n2)c1 [Example 337, 4-[6-(3-methoxyphenyl)imidazo[2,1-b][1,3]oxazol-5-yl]-N-piperidin-4-ylpyrimidin-2-amine] | 3210
26 | COC(=O)c1ccc(S(=O)(=O)N2CCC[C@@H](Nc3nccc(-c4c(-c5cccc(O)c5)nc5sccn45)n3)C2)cc1 [Example 314, methyl 4-{[(3R)-3-({4-[6-(3-hydroxyphenyl)imidazo[2,1-b][1,3]thiazol-5-yl]pyrimidin-2-yl}amino)piperidin-1-yl]sulfonyl}benzoate] | 30

same assay, conditions: read-out: Mutant B-RAF IC50 (uM) or % inhibition

Row | IC50 [nM] | SMILES
27 | 2300 | O=S(=O)(C1CC1)N1CCC[C@@H](Nc2nccc(-c3c(-c4cccc(O)c4)nc4occn34)n2)C1 [Example 397, 3-[5-(2-{[(3R)-1-(cyclopropylsulfonyl)piperidin-3-yl]amino}pyrimidin-4-yl)imidazo[2,1-b][1,3]oxazol-6-yl]phenol]
